Data from article PMC9705435, “Thiocarbazate building blocks enable the construction of azapeptides for rapid development of therapeutic candidates” (Nature Communications, 2022).
“And” between values parts separate entries of the source, which are not always exact repeats. Equal values may be shown once. Blank lines part the entries; values can stand above or below the molecule they belong to. Numbered stars: 1 amine (or outer) side, 2 acyl side, 3 side chain; on linkers, the order of the positions; unused ones are H or OH. Square brackets hold non-standard residues; d marks the D form. Peptide text beside a SMILES is read from it. * marks the point of attachment. azaPhe = O=C(N(Cc1ccccc1)N[*:1])[*:2]; azaPro = O=C(N1CCCN1[*:1])[*:2]; X1 = N=C(N)NCCCN(N)C(=O)*; azaGly = NNC(=O)O

Legend:
in vitro = conditions: male, C57BL/6J, mouse, blood
3T3 cells = molecular target: T1, 3T3 cells (Mus musculus, UniProt P32299); assay: PGE2 induction in 3T3 fibroblasts (ELISA); format: cell-based; conditions: 7 min, serum-free medium
T1 sequence (P32299 1-392): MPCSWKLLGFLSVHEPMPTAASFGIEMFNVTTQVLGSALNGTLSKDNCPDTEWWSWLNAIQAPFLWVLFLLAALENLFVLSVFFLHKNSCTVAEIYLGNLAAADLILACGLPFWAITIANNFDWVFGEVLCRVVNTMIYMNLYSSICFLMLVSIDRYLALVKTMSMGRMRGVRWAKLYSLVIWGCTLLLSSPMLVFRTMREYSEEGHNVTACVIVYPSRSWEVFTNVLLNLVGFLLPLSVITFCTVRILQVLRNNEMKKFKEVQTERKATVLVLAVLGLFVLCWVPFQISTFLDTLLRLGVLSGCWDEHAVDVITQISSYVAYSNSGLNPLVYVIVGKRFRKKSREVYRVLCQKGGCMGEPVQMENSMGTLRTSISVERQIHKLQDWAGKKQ
Experimental: Subconfluent monolayers of 3T3 cells were incubated with test compounds for 7 min in serum-free medium and supernatants were collected and analyzed for PGE2 by ELISA.
5.1 In vitro PGE2 induction
3T3 Swiss Albino cell line (ATCC CCL-92) was purchased from American Type Culture Collection (Manassas, VA).
Following trypsinization, cells were washed and resuspended in DMEM-Complete at a cell density of 0.03 x 10^6 cells per ml. Cells were seeded into 96 -well flat-bottomed culture plates (6 x 10^3 cells per well in 200 µl). After one day of culture, 3T3 cell monolayers were washed two times in pre-warmed DMEM supplemented with 20 mM HEPES (DMEM-HEPES) and DMEM-HEPES
supernatants were collected and immediately frozen at -20°C for future PGE2 analyses. PGE2 levels in supernatants were determined using PGE2 ELISA kit (Enzo Life Sciences, Farmingdale, NY) following manufacturer’s instructions. Samples were assayed in quadruplicate. PGE2 ELISA data were analyzed using GraphPad Prism Version 9.3.1.

HMGB1/MD-2 binding = molecular target: T2, HMGB1/MD-2 binding (Homo sapiens, UniProt Q9Y6Y9); assay: SPR HMGB1/MD-2 binding inhibition assay; conditions: immobilized disulfide HMGB1, MD-2 0.25 µM
T2 construct: purchased R&D Systems 1787-MD
T2 sequence (Q9Y6Y9 17-160 limits assumed): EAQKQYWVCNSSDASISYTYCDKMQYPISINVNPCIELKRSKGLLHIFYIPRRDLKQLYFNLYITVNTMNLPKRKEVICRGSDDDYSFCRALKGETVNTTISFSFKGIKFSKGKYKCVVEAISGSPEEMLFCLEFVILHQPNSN

[1] = molecular target: T3, Human B2 (h) receptor (B2R) (Homo sapiens, UniProt P30411); assay: Human B2 (h) (agonist radioligand) receptor binding assay, [3H]bradykinin displacement
T3 construct: host or cells: CHO cells
T3 sequence (P30411 1-391): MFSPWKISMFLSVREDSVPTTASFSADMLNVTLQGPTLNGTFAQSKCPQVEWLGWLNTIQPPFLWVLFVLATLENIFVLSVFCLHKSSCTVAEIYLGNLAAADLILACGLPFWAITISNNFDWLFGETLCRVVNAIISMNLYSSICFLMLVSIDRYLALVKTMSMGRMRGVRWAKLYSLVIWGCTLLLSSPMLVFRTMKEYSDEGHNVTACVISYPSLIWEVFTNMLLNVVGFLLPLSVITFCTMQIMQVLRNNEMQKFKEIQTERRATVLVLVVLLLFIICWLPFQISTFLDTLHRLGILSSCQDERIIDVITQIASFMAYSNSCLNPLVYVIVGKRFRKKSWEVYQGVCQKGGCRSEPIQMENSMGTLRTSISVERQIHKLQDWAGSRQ
Excerpt: The data was collected by CRO Eurofins Cerep (France) and the result is attached as an additional data file. B2R radioligand agonist binding displacement assay for determination of IC-50.
Test compounds (FI-U / [azaP2, azaF8-BK (70), FI-2V / azaF8-BK (68), and FI-8G / azaP2-BK (63)) were supplied to Eurofins in a blinded manner and run at five concentrations to determine the IC-50’s. Standard company control test compounds were used for assay validation. Experimental assays achieved inhibition of more than 50% and were considered to represent significant effects of the test compounds.
(B2(h)) was used as the agonist for B2R receptor binding. The results are expressed as a percent of control specific binding (measured specific binding /control specific binding)*100, and as a percent inhibition of control specific binding (100 minus (measured specific binding/ control specific binding)*100) obtained in the presence of the test compounds. The IC50 values (concentration causing a half-maximal inhibition of control specific binding) and Hill coefficients (nH) were determined by non-linear regression analysis of the competition curves generated with mean replicate values using Hill equation curve fitting Y=D+[ A-D / 1+(C/C50) nH] where Y = specific binding, A = left asymptote of the curve, D = right asymptote of the curve, C = compound concentration, C50 = IC50, and nH = slope factor. This analysis was performed using software developed at Cerep (Hill software) and validated by comparison with data generated by the commercial software SigmaPlot® 4.0 for […]
The inhibition constants (Ki) were calculated using the Cheng Prusoff equation. Ki=IC50/(1+L/Kd) where L = concentration of radioligand in the assay, and Kd = affinity of the radioligand for the receptor. A scatchard plot is used to determine the Kd. […]
9.1. Experimental Conditions
9.1.1. In Vitro Pharmacology: Binding Assays
Assay Source Ligand Conc. Kd Non Specific Incubation Detection Bibl.
(agonist recombinant (1 µM) RT counting
9.2. Analysis and expression of results
9.2.1. In Vitro Pharmacology: Binding Assays
The results are expressed as a percent of control specific binding measured specific binding *100 […]
and as a percent inhibition of control specific binding
100-( measured specific binding *100) […]
obtained in the presence of the test compounds.
The IC50 values (concentration causing a half-maximal inhibition of control specific binding) and Hill coefficients (nH) were determined by non-linear regression analysis of the competition curves generated with mean replicate values using Hill equation […]
where Y = specific binding, A = left asymptote of the curve, D = right asymptote of the curve, C = compound concentration, C50 = IC50, and nH = slope factor. This analysis was performed using software developed at Cerep (Hill software) and validated by […]
The inhibition constants (Ki ) were calculated using the Cheng Prusoff equation where L = concentration of radioligand in the assay, and KD = affinity of the radioligand for the receptor. A scatchard plot is used to […]

SMILES: NC(N)=NCCC[C@H](NC(=O)[C@H](Cc1ccccc1)NC(=O)[C@@H]1CCCN1C(=O)[C@H](CO)NC(=O)[C@H](Cc1ccccc1)NC(=O)CNC(=O)[C@@H]1CCCN1C(=O)[C@@H]1CCCN1C(=O)[C@@H](N)CCCN=C(N)N)C(=O)O [Bradykinin, reference compound] (H-RPPGFSPFR-OH)
half-life (in vitro): 5.29 ± 0.5 min
EC50 (3T3 cells): 44.4 nM

SMILES: NC(=O)[C@H](CCC(=O)O)NC(=O)[C@H](CO)NC(=O)[C@H](CO)NC(=O)N(N)Cc1ccccc1 [Compound 52, azaF^1SSE-NH2]
half-life (in vitro): > 120 min
IC50 (HMGB1/MD-2 binding): 249 nM

half-life (in vitro; Ex-vivo stability t 1/2): 2.6 ± 0.11 min
IC50 (HMGB1/MD-2 binding): 397 nM
SMILES: NC(=O)N(CCC(=O)O)NC(=O)[C@H](CO)NC(=O)[C@H](CO)NC(=O)[C@@H](N)Cc1ccccc1 [Compound 53, FSSazaE^4-NH2]

SMILES: NN(Cc1ccccc1)C(=O)N[C@@H](CO)C(=O)N[C@@H](CO)C(=O)N[C@@H](CCC(=O)O)C(=O)O [Compound 54, azaF^1SSE-OH]
half-life (in vitro): > 120 min
IC50 (HMGB1/MD-2 binding): 127 nM

SMILES: NC(=O)CC[C@H](NC(=O)[C@H](CO)NC(=O)[C@H](CO)NC(=O)N(N)Cc1ccccc1)C(=O)O [Compound 55, azaF^1SSQ-OH]
half-life (in vitro): 24.4 ± 1.6 min
IC50 (HMGB1/MD-2 binding): 159 nM

SMILES: NC(=O)CC[C@H](NC(=O)[C@H](CO)NC(=O)[C@H](CO)NC(=O)N(N)Cc1ccccc1)C(N)=O [Compound 56, azaF^1SSQ-NH2]
half-life (in vitro): > 120 min
IC50 (HMGB1/MD-2 binding): 349 nM

SMILES: NC(=O)CCN(NC(=O)[C@H](CO)NC(=O)[C@H](CO)NC(=O)N(N)Cc1ccccc1)C(N)=O [Compound 57, azaF^1SSazaQ^4-NH2]
half-life (in vitro): > 120 min
IC50 (HMGB1/MD-2 binding): 83 nM

half-life (in vitro; Ex-vivo stability t 1/2): 2.9 ± 0.2 min
IC50 (HMGB1/MD-2 binding): 423 nM
SMILES: NC(=O)CCN(NC(=O)[C@H](CO)NC(=O)[C@H](CO)NC(=O)[C@@H](N)Cc1ccccc1)C(N)=O [Compound 58, FSSazaQ^4-NH2]

SMILES: N=C(N)NCCC[C@H](NC(=O)[C@H](Cc1ccccc1)NC(=O)[C@@H]1CCCN1C(=O)[C@H](CO)NC(=O)[C@H](Cc1ccccc1)NC(=O)CNC(=O)[C@@H]1CCCN1C(=O)[C@@H]1CCCN1C(=O)N(N)CCCNC(=N)N)C(=O)O [Compound 62] (X1-PPGFSPFR-OH)
half-life (in vitro): 2.46 ± 0.05 min

SMILES: N=C(N)NCCC[C@H](NC(=O)[C@H](Cc1ccccc1)NC(=O)[C@@H]1CCCN1C(=O)[C@H](CO)NC(=O)[C@H](Cc1ccccc1)NC(=O)CNC(=O)[C@@H]1CCCN1C(=O)N1CCCN1C(=O)[C@@H](N)CCCNC(=N)N)C(=O)O [Compound 63, RazaP^2PGFSPFR] (H-R[azaPro]PGFSPFR-OH; N-terminus and C-terminus assumed)
half-life (in vitro): 5.4 ± 1.1 min
EC50 (3T3 cells): 61.1 nM
IC50 [1]: 7.9 nM
Ki [1]: 4.5 nM
% Inhibition of Control Specific Binding, 1st ([1]; 1.0E-06 M): 98.9%
% Inhibition of Control Specific Binding, 2nd ([1]; 1.0E-06 M): 98.6%
% Inhibition of Control Specific Binding, Mean ([1]; 1.0E-06 M): 98.8%
% Inhibition of Control Specific Binding, 1st ([1]; 1.0E-07 M): 94.6%
% Inhibition of Control Specific Binding, 2nd ([1]; 1.0E-07 M): 95.1%
% Inhibition of Control Specific Binding, Mean ([1]; 1.0E-07 M): 94.9%
% Inhibition of Control Specific Binding, 1st ([1]; 1.0E-08 M): 58.5%
% Inhibition of Control Specific Binding, 2nd ([1]; 1.0E-08 M): 56.4%
% Inhibition of Control Specific Binding, Mean ([1]; 1.0E-08 M): 57.4%
% Inhibition of Control Specific Binding, 1st ([1]; 1.0E-09 M): 0.2%
% Inhibition of Control Specific Binding, 2nd ([1]; 1.0E-09 M): -3.4%
% Inhibition of Control Specific Binding, Mean ([1]; 1.0E-09 M): -1.6%
% Inhibition of Control Specific Binding, 1st ([1]; 3.0E-08 M): 86.3%
% Inhibition of Control Specific Binding, 2nd ([1]; 3.0E-08 M): 63.9%
% Inhibition of Control Specific Binding, Mean ([1]; 3.0E-08 M): 75.1%

SMILES: N=C(N)NCCC[C@H](NC(=O)[C@H](Cc1ccccc1)NC(=O)[C@@H]1CCCN1C(=O)[C@H](CO)NC(=O)[C@H](Cc1ccccc1)NC(=O)CNC(=O)N1CCCN1C(=O)[C@@H]1CCCN1C(=O)[C@@H](N)CCCNC(=N)N)C(=O)O [Compound 64, RPazaP^3GFSPFR]
half-life (in vitro): 2.63 ± 0.25 min

SMILES: N=C(N)NCCC[C@H](NC(=O)[C@H](Cc1ccccc1)NC(=O)[C@@H]1CCCN1C(=O)[C@H](CO)NC(=O)[C@H](Cc1ccccc1)NC(=O)NNC(=O)[C@@H]1CCCN1C(=O)[C@@H]1CCCN1C(=O)[C@@H](N)CCCNC(=N)N)C(=O)O [Compound 65, RPPazaG^4FSPFR] (H-RPP[azaGly]FSPFR-OH; N-terminus and C-terminus assumed)
half-life (in vitro): 4.33 ± 1.3 min

SMILES: N=C(N)NCCC[C@H](NC(=O)[C@H](Cc1ccccc1)NC(=O)[C@@H]1CCCN1C(=O)[C@H](CO)NC(=O)N(Cc1ccccc1)NC(=O)CNC(=O)[C@@H]1CCCN1C(=O)[C@@H]1CCCN1C(=O)[C@@H](N)CCCNC(=N)N)C(=O)O [Compound 66, RPPGazaF^5SPFR] (H-RPPG[azaPhe]SPFR-OH; N-terminus and C-terminus assumed)
half-life (in vitro): 14.7 ± 1.6 min

SMILES: N=C(N)NCCC[C@H](NC(=O)[C@H](Cc1ccccc1)NC(=O)N1CCCN1C(=O)[C@H](CO)NC(=O)[C@H](Cc1ccccc1)NC(=O)CNC(=O)[C@@H]1CCCN1C(=O)[C@@H]1CCCN1C(=O)[C@@H](N)CCCNC(=N)N)C(=O)O [Compound 67, RPPGFSazaP^7FR] (H-RPPGFS[azaPro]FR-OH)
half-life (in vitro): 2.38 ± 0.03 min

SMILES: N=C(N)NCCC[C@H](N)C(=O)N1CCC[C@H]1C(=O)N1CCC[C@H]1C(=O)NCC(=O)N[C@@H](Cc1ccccc1)C(=O)N[C@@H](CO)C(=O)N1CCC[C@H]1C(=O)N[C@@H](Cc1ccccc1)C(=O)NN(CCCNC(=N)N)C(=O)O [Compound 69]
half-life (in vitro): 42.6 ± 0.8 min

SMILES: N=C(N)NCCC[C@H](NC(=O)N(Cc1ccccc1)NC(=O)[C@@H]1CCCN1C(=O)[C@H](CO)NC(=O)N(Cc1ccccc1)NC(=O)CNC(=O)[C@@H]1CCCN1C(=O)[C@@H]1CCCN1C(=O)[C@@H](N)CCCNC(=N)N)C(=O)O [Compound 71, RPPGazaF^5SPazaF^8R] (H-RPPG[azaPhe]SP[azaPhe]R-OH; N-terminus and C-terminus assumed)
half-life (in vitro): 106 ± 1.8 min

SMILES: N=C(N)NCCC[C@@H](N)C(=O)N[C@@H](CCCNC(=N)N)C(=O)N1CCC[C@H]1C(=O)N1C[C@H](O)C[C@H]1C(=O)NCC(=O)N[C@@H](Cc1ccccc1)C(=O)N[C@@H](CO)C(=O)N[C@H](Cc1ccccc1)C(=O)N[C@@H](Cc1ccccc1)C(=O)N[C@@H](CCCNC(=N)N)C(=O)O [NPC 567, reference compound]
nH (Hill coefficient) ([1]; Eurofins Cerep report): 0.6 and 0.9
